Measurements published in US9394297B2, “Amides as pim inhibitors” (AMGEN INC., priority 2012, dated 2016).
Where two headings read alike, the source gives them in different places.

Columns and labels:
Pim-2 = Pim-2 (Homo sapiens (Human), UniProt Q9P1W9); assay: Pim-Mn enzyme assay (HTRF, 384-well), Pim-2; assay type: biochemical; conditions: read-out: Pim-2-Mn IC50 IP
Pim-1 = Pim-1 (Homo sapiens (Human), UniProt P11309); assay: Pim-Mn enzyme assay (HTRF, 384-well), Pim-1; assay type: biochemical; conditions: read-out: Pim-1-Mn IC50 IP
KMS-12-BM cell lines = assay: KMS12 #2 flow cytometry assay (phospho-BAD Ser112); assay type: cell-based; conditions: Homo sapiens, 110 min; KMS-12-BM cells, pBAD Ser112 by flow cytometry, 110 min with compound; read-out: KMS-12-Flow IC50 IP
[1] = Pim-2 enzyme 0.5 pM, ATP 1.5 μM, BAD (S112) 0.5 μM, HTRF, 22-point curve
[2] = Pim-1 enzyme 5 pM, ATP 1.5 μM, BAD (S112) 0.5 μM, HTRF, 22-point curve

Sequence of Pim-2 (Q9P1W9 whole entry): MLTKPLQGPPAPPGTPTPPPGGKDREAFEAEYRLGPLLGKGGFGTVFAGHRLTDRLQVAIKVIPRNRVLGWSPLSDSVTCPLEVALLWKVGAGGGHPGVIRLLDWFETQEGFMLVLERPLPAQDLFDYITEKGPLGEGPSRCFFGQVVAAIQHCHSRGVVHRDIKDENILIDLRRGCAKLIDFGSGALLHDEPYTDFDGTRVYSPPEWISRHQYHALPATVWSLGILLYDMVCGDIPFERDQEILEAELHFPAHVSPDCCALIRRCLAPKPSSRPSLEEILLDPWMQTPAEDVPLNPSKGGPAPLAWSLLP
Sequence of Pim-1 (P11309 whole entry): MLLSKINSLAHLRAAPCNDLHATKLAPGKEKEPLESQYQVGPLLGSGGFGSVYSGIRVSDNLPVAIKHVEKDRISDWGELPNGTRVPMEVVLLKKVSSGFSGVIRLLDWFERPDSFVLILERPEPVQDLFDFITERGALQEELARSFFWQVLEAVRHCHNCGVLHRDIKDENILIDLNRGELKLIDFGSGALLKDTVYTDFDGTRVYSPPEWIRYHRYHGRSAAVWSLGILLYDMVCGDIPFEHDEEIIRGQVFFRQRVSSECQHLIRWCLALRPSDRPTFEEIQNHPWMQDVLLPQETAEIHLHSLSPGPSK

Structure (SMILES) | IC50 (Pim-2; [1]) [nM] | IC50 (Pim-1; [2]) [nM] | IC50 (KMS-12-BM cell lines) [nM] | IC50 (Pim-2) [nM] | IC50 (Pim-1) [nM]
CC(C)(C)Nc1nc2c(-c3cc4c([nH]3)CCNC4=O)cccc2nc1CO [Example 306, 2-(3-(tert-butylamino)-2-(hydroxymethyl)quinoxalin-5-yl)-6,7-dihydro-1H-pyrrolo[3,2-c]pyridin-4(5H)-one] | 2.26 | 2.12 | 558 | – | –
COCCn1c(NC(C)(C)C)nc2c(-c3cc4c([nH]3)CNC4=O)cccc2c1=O [Example 458, 2-(tert-butylamino)-3-(2-methoxyethyl)-8-(4-oxo-1,4,5,6-tetrahydropyrrolo[3,4-b]pyrrol-2-yl)-4(3H)-quinazolinone] | 0.218 | 0.325 | 54.6 | – | –
Cc1nc2cccc(-c3cc4c([nH]3)CNC4=O)c2nc1NC(C)(C)C [Example 334, 2-(3-(tert-Butylamino)-2-methyl-5-quinoxalinyl)-5,6-dihydropyrrolo[3,4-b]pyrrol-4(1H)-one] | 0.882 | 1.18 | 43.8 | – | –
Cc1nc2cccc(-c3cc4c([nH]3)[C@H](CO)NC4=O)c2nc1NC1(C)CC1 [Example 362, (R)-6-(hydroxymethyl)-2-(2-methyl-3-((1-methylcyclopropyl)amino)quinoxalin-5-yl)-5,6-dihydropyrrolo[3,4-b]pyrrol-4 (1H)-one] | 1.82 | 1.73 | 251 | – | –
CC(C)(C)Nc1nc2c(-c3cc4c([nH]3)CCNC4=O)cccc2nc1F [Example 343, 2-(3-(tert-butylamino)-2-fluoro-5-quinoxalinyl)-1,5,6,7-tetrahydro-4H-pyrrolo[3,2-c]pyridin-4-one] | 2.78 | 2.33 | 1770 | – | –
Cc1nc2cccc(-c3cc4c(n3C(=O)OC(C)(C)C)CCNC4=O)c2nc1NC(C)(C)C [Example 290, tert-butyl 2-(3-(tert-butylamino)-2-methylquinoxalin-5-yl)-4-oxo-4,5,6,7-tetrahydro-1H-pyrrolo[3,2-c]pyridine-1-carboxylate] | 35.8 | 39.7 | 4190 | – | –
Cc1nc2cccc(-c3cc4c([nH]3)CCNC4=O)c2nc1Cl [Example 425, 2-(3-Chloro-2-methylquinoxalin-5-yl)-6,7-dihydro-1H-pyrrolo[3,2-c]pyridin-4(5H)-one] | 521 | 392 | > 40000 | – | –
Cc1nc2cccc(-c3cc4c([nH]3)C3(CC3)NC4=O)c2nc1NC1(C)CC1 [Example 329, 2′-(2-methyl-3-((1-methylcyclopropyl)amino)-5-quinoxalinyl)-1′H-spiro[cyclopropane-1,6′-pyrrolo[3,4-b]pyrrol]-4′(5′H)-one] | – | – | 26.2 | 0.39 | 0.334
Cc1nc2ccc(F)c(-c3cc4c([nH]3)CCNC4=O)c2nc1NC(C)(C)CO [Example 370, 2-(6-fluoro-3-((1-hydroxy-2-methylpropan-2-yl)amino)-2-methylquinoxalin-5-yl)-6,7-dihydro-1H-pyrrolo[3,2-c]pyridin-4(5H)-one] | 0.272 | 0.992 | 143 | – | –
Cc1nc2ccc(F)c(-c3cc4c([nH]3)CCNC4=O)c2nc1NC1(C)CC1 [Example 369, 2-(6-fluoro-2-methyl-3-((1-methylcyclopropyl)amino)quinoxalin-5-yl)-6,7-dihydro-1H-pyrrolo[3,2-c]pyridin-4(5H)-one 2,2,2-trifluoroacetate] | 0.162 | 0.184 | 11.5 | – | –
CC(C)(C)Nc1ncc2cccc(-c3cc4c([nH]3)CCNC4=O)c2n1 [Example 374, 2-(2-(tert-butylamino)quinazolin-8-yl)-6,7-dihydro-1H-pyrrolo[3,2-c]pyridin-4(5H)-one] | 3.62 | 2.54 | 769 | – | –
CC(C)(C)Nc1nc2c(-c3cc4c([nH]3)CCNC4=O)cccc2nc1C#N [Example 309, 3-(tert-butylamino)-5-(4-oxo-4,5,6,7-tetrahydro-1H-pyrrolo[3,2-c]pyridin-2-yl)quinoxaline-2-carbonitrile] | 3.76 | 3.55 | 1160 | – | –
Cc1nc2ccc(F)c(-c3cc4c([nH]3)CCNC4=O)c2nc1NC(C)C [Example 373, 2-(6-fluoro-3-(isopropylamino)-2-methylquinoxalin-5-yl)-6,7-dihydro-1H-pyrrolo[3,2-c]pyridin-4(5H)-one 2,2,2-trifluoroacetate] | 1.63 | 1.8 | 94.3 | – | –
Cc1nc2cccc(-c3cc4c([nH]3)CCNC4=O)c2nc1NC(=O)C1CC1 [Example 446, N-(3-methyl-8-(4-oxo-4,5,6,7-tetrahydro-1H-pyrrolo[3,2-c]pyridin-2-yl)quinoxalin-2-yl)cyclopropanecarboxamide] | 131 | 145 | > 40000 | – | –
Cc1nc2cccc(-c3cc4c([nH]3)C(COCc3ccccc3)NC4=O)c2nc1NC1(C)CC1 (stereo not drawn) [Example 355, 6-((benzyloxy)methyl)-2-(2-methyl-3-((1-methylcyclopropyl)amino)quinoxalin-5-yl)-5,6-dihydropyrrolo[3,4-b]pyrrol-4 (1H)-one] | 1.86 | – | 2430 | – | 1.79
Cc1nc2cccc(-c3cc4c(=O)[nH]nc(C)c4[nH]3)c2nc1NC(C)(C)C [Example 416, 2-(3-(tert-butylamino)-2-methylquinoxalin-5-yl)-7-methyl-1H-pyrrolo[2,3-d]pyridazin-4(5H)-one] | – | – | 2950 | 15.8 | 7.63
Cc1cccc(C)c1-c1cnc2cccc(-c3cc4c([nH]3)CCNC4=O)c2n1 [Example 401, 2-(3-(2,6-dimethylphenyl)-5-quinoxalinyl)-1,5,6,7-tetrahydro-4H-pyrrolo[3,2-c]pyridin-4-one] | 34.9 | 19.5 | 18500 | – | –
COCCOCCn1c(NC(C)(C)C)nc2c(-c3cc4c([nH]3)[C@@H](C)NC4=O)cccc2c1=O [Example 474, 2-(tert-butylamino)-3-(2-(2-methoxyethoxyl)ethyl)-8-((6R)-6-methyl-4-oxo-1,4,5,6-tetrahydropyrrolo[3,4-b]pyrrol-2-yl)-4(3H)-quinazolinone] | 0.917 | 1.34 | 121 | – | –
Cc1nc2cccc(-c3cc4c([nH]3)C(C)(C)NC4=O)c2nc1NC(C)(C)C [Example 466, 2-(3-(tert-butylamino)-2-methyl-5-quinoxalinyl)-6,6-dimethyl-5,6-dihydropyrrolo[3,4-b]pyrrol-4(1H)-one] | – | – | 75.5 | 1.93 | 2.28
CCc1nc2cccc(-c3cc4c([nH]3)CCNC4=O)c2nc1NC(C)(C)C [Example 312, 2-(3-(tert-butylamino)-2-ethylquinoxalin-5-yl)-6,7-dihydro-1H-pyrrolo[3,2-c]pyridin-4(5H)-one] | 0.195 | 0.271 | 123 | – | –
Cc1nc2cccc(-c3cc(C(N)=O)n[nH]3)c2nc1NC(C)(C)C [Example 467, 5-(3-(tert-butylamino)-2-methylquinoxalin-5-yl)-1H-pyrazole-3-carboxamide] | 8.9 | 21.6 | 3880 | – | –
Cc1nc2ccc(F)c(-c3cc4c([nH]3)[C@@H](C)NC4=O)c2nc1NC1(C)CC1 [Example 379, (R)-2-(6-fluoro-2-methyl-3-((1-methylcyclopropyl)amino)quinoxalin-5-yl)-6-methyl-5,6-dihydropyrrolo[3,4-b]pyrrol-4(1H)-one] | 0.0484 | 0.0376 | 11.3 | – | –
Cc1nc2cccc(-c3cc4c(n3C)CCNC4=O)c2nc1NC(C)(C)C [Example 314, 2-(3-(tert-butylamino)-2-methylquinoxalin-5-yl)-1-methyl-6,7-dihydro-1H-pyrrolo[3,2-c]pyridin-4(5H)-one] | 8.58 | 9.48 | 6730 | – | –
Cc1nc2ccc(F)c(-c3cc4c([nH]3)C3(CC3)NC4=O)c2nc1NC(C)C [Example 330, 2′-(6-Fluoro-3-(isopropylamino)-2-methylquinoxalin-5-yl)-1′H-spiro[cyclopropane-1,6′-pyrrolo[3,4-b]pyrrol]-4′(5′H)-one] | 1.17 | 0.724 | 85.6 | – | –
Cc1nc2cccc(-c3cc4c([nH]3)CCNC4=O)c2nc1-c1ccncc1Cl [Example 411, 2-(3-(3-chloro-4-pyridinyl)-2-methyl-5-quinoxalinyl)-1,5,6,7-tetrahydro-4H-pyrrolo[3,2-c]pyridin-4-one] | 239 | 66.5 | > 40000 | – | –
C[C@H]1NC(=O)c2cc(-c3cccc4c(=O)n(C)c(OC5(C)CC5)nc34)[nH]c21 [Example 460, 3-methyl-2-((1-methylcyclopropyl)oxy)-8-((6R)-6-methyl-4-oxo-1,4,5,6-tetrahydropyrrolo[3,4-b]pyrrol-2-yl)-4(3H)-quinazolinone] | 1.01 | 0.554 | 94 | – | –
Cc1nc2ccc(F)c(-c3cc4c([nH]3)C3(CC3)NC4=O)c2nc1NC1(C)CC1 [Example 378, 2′-(6-fluoro-2-methyl-3-((1-methylcyclopropyl)amino)quinoxalin-5-yl)-1′H-spiro[cyclopropane-1,6′-pyrrolo[3,4-b]pyrrol]-4′(5′H)-one] | – | – | 16.1 | 0.0354 | 0.0295
Cc1nc2ccc(F)c(-c3cc4c([nH]3)[C@H]([C@H](C)O)NC4=O)c2nc1NC1CC1 [Example 354, (R)-2-(3-(cyclopropylamino)-6-fluoro-2-methylquinoxalin-5-yl)-6-((S)-1-hydroxyethyl)-5,6-dihydropyrrolo[3,4-b]pyrrol-4(1H)-one] | 16.4 | 7.08 | 2310 | – | –
